In patent publication US9487489B2, “Halogen-substituted pyrazole derivatives as pest-control agents” (BAYER CROPSCIENCE AKTIENGESELLSCHAFT, priority 2013, dated 2016):

What was measured:
[1] = test system: cattle ticks (Boophilus microplus) Parkhurst strain, SP-resistant; experiment: Boophilus microplus dip test (BOOPMI Dip); type: in vivo; details: application rate 100 ppm, assessed after 7 days
How it was run: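 Adult engorged female SP-resistant Parkhurst ticks (8–10) were fully immersed in compound diluted in water from a DMSO solution, then kept in a climate-controlled room. After 7 days, fertile egg-laying was scored, with larval hatching checked at about 42 days; 100% efficacy means no fertile eggs.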

[2] = test system: engorged adult female cattle ticks (Boophilus microplus); experiment: Boophilus microplus injection test (BOOPMI Inj); type: in vivo; details: application rate 20 μg/animal; injection into abdomen; assessed after 7 days
How it was run: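 Efficacy is read at 7 days as fertile egg laying (100% = no fertile eggs laid; 0% = all eggs fertile), with eggs of unclear fertility stored until larvae hatch at about 42 days. Five engorged adult females per dose each receive an abdominal injection of 1 μl compound dissolved in DMSO.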

[3] = test system: adult cat fleas (Ctenocephalides felis); experiment: Ctenocephalides felis oral test (CTECFE); type: in vivo; details: application rate 100 ppm in citrated cattle blood; after 2 days
How it was run: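 Mortality read at 2 days as percent of fleas killed. Compound predissolved in DMSO, diluted into citrated cattle blood and offered to roughly 20 unfed adult C. felis via parafilm membrane feeder.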

[4] = test system: L1 larvae of the Australian sheep blowfly (Lucilia cuprina); experiment: Lucilia cuprina test (LUCICU); type: in vivo; details: application rate 100 ppm; after 2 days
How it was run: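 Percent mortality read at 2 days; 100% = all larvae killed, 0% = none. Test compound, predissolved in DMSO and water-diluted to the wanted level, was mixed into minced horsemeat holding roughly 20 first-instar larvae.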

[5] = test system: adult houseflies (Musca domestica); experiment: Musca domestica test (MUSCDO); type: in vivo; details: application rate 100 ppm; after 2 days
How it was run: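 Groups of 10 adult Musca domestica exposed to a sugar-soaked sponge treated with the water-diluted DMSO preparation of compound at the chosen concentration. Percent kill read at day 2, where 0% means no flies killed and 100% all killed.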

[6] = test system: green peach aphid (Myzus persicae); experiment: Myzus persicae spray test (MYZUPE); type: in vivo; details: Chinese cabbage leaf discs, after 6 days
How it was run: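 Chinese cabbage leaf discs infested with all aphid stages sprayed with compound in acetone/DMF with alkylaryl polyglycol ether emulsifier in water. Efficacy (% aphids killed; 100% all dead, 0% none) scored after 6 days.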

[7] = test system: larvae of the mustard beetle (Phaedon cochleariae); experiment: Phaedon cochleariae spray test (PHAECO); type: in vivo; details: Chinese cabbage leaf discs, after 7 days
How it was run: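 Kill of mustard beetle larvae is read as % mortality 7 days after spraying. Spray liquid: active compound in acetone plus dimethylformamide, brought up with water holding 1000 ppm alkylaryl polyglycol ether emulsifier and diluted further in emulsifier-water.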

[8] = test system: caterpillars of the armyworm (Spodoptera frugiperda); experiment: Spodoptera frugiperda spray test (SPODFR); type: in vivo; details: maize leaf discs, after 7 days
How it was run: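 Percent kill read at day 7 on caterpillar-infested maize leaf discs. Discs were first sprayed with aqueous emulsifier-containing (1000 ppm) preparations made from acetone/dimethylformamide solutions, and dried. Scale: 0% none dead, 100% all dead.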

[9] = test system: greenhouse red spider mite (Tetranychus urticae); experiment: Tetranychus urticae spray test, OP-resistant (TETRUR); type: in vivo; details: bean leaf discs, after 6 days
How it was run: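 Percent kill, scored 6 days post-spray (0% = none dead, 100% = all dead), on Phaseolus vulgaris leaf discs infested with every life stage of the OP-resistant spider mite. Compound dissolved in acetone plus DMF, diluted to test concentration with emulsifier-containing water (1000 ppm).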

[10] = test system: adult cat fleas (Ctenocephalides felis); experiment: Ctenocephalides felis in vitro contact test with adult cat fleas (T1); details: after 48 h
How it was run: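 Adult cat fleas (Ctenocephalides felis), 5-10 per tube, were exposed to the inner surface of 25 ml test tubes coated with compound in acetone. Tubes were incubated lying flat under ambient conditions. Efficacy was then read by standing tubes upright and knocking the fleas to the floor. Fleas that stayed motionless or moved uncoordinatedly counted as dead or moribund, where 100% means all fleas dead or moribund and 0% means none harmed.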

[11] = test system: adult dog ticks (Rhipicephalus sanguineus); experiment: Rhipicephalus sanguineus in vitro contact test with adult brown dog ticks (T2); details: after 48 h
How it was run: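 Acetone solutions coated onto test tube walls and floor, giving 5 μg/cm^2 at 900 ppm. Five to ten adult ticks held per tube in the dark at room temperature for 48 h, then heated at 45-50° C for up to 5 min; efficacy is the percentage of dead or moribund ticks unable to climb away.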

[12] = test system: adult castor bean ticks (Ixodes ricinus); experiment: Ixodes ricinus in vitro contact test with adult castor bean ticks (T3); details: after 48 h
Description: T3. Ixodes ricinus-in vitro Contact Tests with Adult Castor Bean Ticks
For the coating of the test tubes, initially 9 mg of active compound are dissolved in 1 ml of acetone p.a. and then diluted with acetone p.a. to the desired concentration. By turning and rocking on an orbital shaker (2 h of rocking rotation at 30 rpm), 250 μl of the solution are distributed homogeneously on the internal walls and the floor of a 25 ml test tube. At 900 ppm active compound solution and 44.7 cm^2 internal surface, an area dose of 5 μg/cm^2 is achieved for homogeneous distribution.
After evaporation of the solvent, the tubes are populated with 5-10 adult castor bean ticks (Ixodes ricinus), sealed with a perforated plastic lid and incubated in a horizontal position in the dark at 22° C. and 90% humidity in a climate-controlled cabinet. After 48 h, the efficacy is determined. To this end, the ticks are knocked to the floor of the tube and incubated on a hotplate at 45-50° C. for at most 5 min. Ticks which remain motionless on the floor or move in an uncoordinated manner such that they are not able to deliberately avoid the heat by climbing upwards are considered to be dead or moribund.
An efficacy of 100% means that all ticks were dead or moribund. 0% efficacy means that none of the ticks had been damaged.

[13] = test system: bont tick nymphs (Amblyomma hebraeum); details: after 48 h
[14] = logP determination by HPLC on a reversed-phase column (C18), EEC Directive 79/831 Annex V.A8; type: physicochemical
How it was run: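 Per EEC 79/831 Annex V.A8, values derive from HPLC retention at 2.0 ml/min and 55° C on a 50*4.6 C18 column. The 10→95% acetonitrile gradient (0.1%/0.09% formic acid) lasted 4.25 min plus a 1.25 min hold; mass detection was by MSD.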

[15] = HPLC on reversed-phase column (C18), acetonitrile/water with formic acid, EEC Directive 79/831 Annex V.A8

| SMILES | efficacy (laying of fertile eggs) [1] | efficacy (laying of fertile eggs) [2] | efficacy (kill in %) [3] | efficacy (kill in %) [4] | efficacy (kill in %) [5] | efficacy in % ([6]; application rate 100 g/ha) | efficacy in % ([7]; application rate 500 g/ha) | efficacy in % ([8]; application rate 500 g/ha) | efficacy in % ([9]; application rate 100 g/ha) | efficacy (dead or moribund fleas) ([10]; application rate 1 μg/cm^2) | efficacy (dead or moribund fleas) ([10]; application rate 5 μg/cm^2) | efficacy (dead or moribund ticks) ([11]; application rate 1 μg/cm^2) | efficacy (dead or moribund ticks) ([11]; application rate 5 μg/cm^2) | efficacy (dead or moribund ticks) ([12]; application rate 1 μg/cm^2) | efficacy (dead or moribund ticks) ([12]; application rate 5 μg/cm^2) | efficacy (dead or moribund ticks) [13] | efficacy in % ([7]; application rate 100 g/ha) | efficacy in % ([8]; application rate 100 g/ha) | efficacy in % ([9]; application rate 500 g/ha) | also measured |
| --- | --- | --- | --- | --- | --- | --- | --- | --- | --- | --- | --- | --- | --- | --- | --- | --- | --- | --- | --- | --- |
| Cn1nc(C(F)(F)C(F)(F)F)c(C(F)(F)F)c1-n1cc(-c2cc(C(=O)NC3(C#N)CC3)c(F)cc2Cl)cn1 [Ic-48] | 80% | 100% | 100% | 100% | 100% | 90% | 100% | 100% | 90% | 100% | 100% | 100% | 100% | 80% | 100% | 100% |  |  |  |  |
| Cn1nc(C(F)(F)C(F)(F)F)c(C(F)(F)F)c1-n1cnc(-c2ccc(Cl)c(C(=O)NC3(C#N)CC3)c2)c1 [Ib-2] | 100% | 100% | 100% | 100% | 100% | 90% |  |  | 100% | 100% | 100% |  |  |  |  | 100% | 100% | 100% |  | logP ([14]; HPLC, reversed-phase C18, acetonitrile (0.1% formic acid)/water (0.09% formic acid) gradient): 3.38 |
| Cn1nc(C(F)(F)C(F)(F)F)c(C(F)(F)F)c1-n1cc(-c2cccc(C(=O)NC3CC3)c2)cn1 [Ic-18] |  | 100% | 100% | 100% | 100% |  |  |  |  | 100% | 100% | 100% | 100% |  | 80% | 100% | 100% | 100% |  | logP [14, 15]: 3.66 |
| COc1ncc(-c2cnn(-c3c(C(F)(F)F)c(C(F)(F)C(F)(F)F)nn3C)c2)cc1C(=O)NC1(C#N)CC1 [Ic-87] |  | 100% | 100% | 100% | 100% | 90% | 100% | 100% |  | 100% | 100% | 100% | 100% | 80% | 100% | 100% |  |  | 100% |  |
| Cc1cc(-c2cnn(-c3c(C(F)(F)F)c(C(F)(F)C(F)(F)F)nn3C)c2)cc(C(=O)NC2CC2)c1Cl [Ic-90] | 100% | 100% | 100% | 100% | 100% |  | 100% | 100% |  | 100% | 100% | 100% | 100% | 100% | 100% | 100% |  |  | 90% | efficacy in % ([6]; application rate 500 g/ha): 100% |
| Cn1nc(C(F)(F)C(F)(F)F)c(C(F)(F)F)c1-n1cc(-c2ccc(Cl)c(C(=O)NC3(C(F)(F)F)CC3)c2)cn1 [Ic-32] |  | 100% | 100% | 100% | 100% |  |  |  | 100% |  | 80% | 80% |  |  |  | 100% | 100% | 100% |  | logP [14, 15]: 4.29 |
| COc1ncc(-c2cnn(-c3c(C(F)(F)F)c(C(F)(F)C(F)(F)F)nn3C)c2)cc1C(=O)NC1CC1 [Ic-86] | 100% | 100% | 100% | 100% | 100% |  | 100% | 100% |  | 100% | 100% | 100% | 100% | 80% | 100% | 100% |  |  | 100% | efficacy in % ([6]; application rate 500 g/ha): 100% |
